Earlier results as cited in PubChem BioAssay AID1259409 (Chemical Carcinogenesis Research Information System (CCRIS), 2018).

Test system: rodent chemically induced tumor inhibition, incidence and multiplicity
Experiment: CCRIS tumor inhibitor studies
Conditions: Carcinogen: 7,12-DIMETHYLBENZ[A]ANTHRACENE, 57-97-6, Route [Inhibitor]: SUBCUTANEOUS, Promoter: NONE USED

CC(C)C[C@H]1C(=O)N2CCC[C@H]2[C@]2(O)O[C@](NC(=O)[C@@H]3C=C4c5cccc6[nH]c(Br)c(c56)C[C@H]4N(C)C3)(C(C)C)C(=O)N12
tumour outcome (control, treated, inhibition, significance) (Dose [Inhibitor]: 0.1 MG 1/D FOR 81 D BEGINNING 30 D PRIOR TO FIRST CARCINOGEN DOSE TO 30 D POST LAST CARCINOGEN DOSE (STUDY DURATION: 31, Species: MOUSE, Strain/Sex: BALB/FEMALE, Target Tissue: Type of Lesion: MAMMARY GLAND: CARCINOMA, Dose [Carcinogen]: 1 MG IN SESAME OIL 1/WK FOR 4 WK): 8%, 8%, 0%, not significant
tumour outcome (control, treated, inhibition, significance) (Dose [Inhibitor]: 0.1 MG/30 G BW FOR 81 D BEGINNING 30 D POST LAST CARCINOGEN DOSE (STUDY DURATION: 27 WK), Species: MOUSE, Strain/Sex: BALB/FEMALE, Target Tissue: Type of Lesion: MAMMARY GLAND: CARCINOMA, Dose [Carcinogen]: 1 MG IN SESAME OIL 1/WK FOR 4 WK): 7%, 8%, -14%, not significant
tumour outcome (control, treated, inhibition, significance) (Dose [Inhibitor]: 0.4 MG/100 G BW 1/D FOR 50 D BEGINNING 30 D POST LAST CARCINOGEN DOSE (90 D TO 140 D OF AGE) (STUDY DURATION: 25 WK), Species: RAT, Strain/Sex: LEWIS/FEMALE, Target Tissue: Type of Lesion: MAMMARY GLAND: CARCINOMA, Dose [Carcinogen]: 10 MG IN SESAME OIL ONCE AT 56 D OF AGE AND ONCE AT 63 D OF AGE): 94%, 56%, 40%, p<0.005
tumour outcome (control, treated, inhibition, significance) (Dose [Inhibitor]: 0.4 MG/100 G BW 1/D FOR 61 D BEGINNING 27 D PRIOR TO FIRST CARCINOGEN DOSE TO 27 D POST LAST CARCINOGEN DOSE (29 TO 90 D, Species: RAT, Strain/Sex: LEWIS/FEMALE, Target Tissue: Type of Lesion: MAMMARY GLAND: CARCINOMA, Dose [Carcinogen]: 10 MG IN SESAME OIL ONCE AT 56 D OF AGE AND ONCE AT 63 D OF AGE): 68%, 60%, 12%, not significant
tumour outcome (control, treated, inhibition, significance) (Dose [Inhibitor]: 0.4 MG/100 G BW 4/WK FOR 20 WK BEGINNING 12 D PRIOR TO FIRST CARCINOGEN DOSE (STUDY DURATION: 152 D), Species: RAT, Strain/Sex: LONG-EVANS/FEMALE, Target Tissue: Type of Lesion: HEMATOPOIETIC SYSTEM: LEUKEMIA (UNDIFFERENTIATED CELL), Dose [Carcinogen]: 10 MG IN SESAME OIL 1/2 WK FOR 12 WK (6 TOTAL DOSES)): 13/40 (33%), 15/41 (36%), -9%, not significant
tumour outcome (control, treated, inhibition, significance) (Dose [Inhibitor]: 0.4 MG/100 G BW 4/WK FOR 35 WK BEGINNING 12 D PRIOR TO FIRST CARCINOGEN DOSE (STUDY DURATION: 257 D), Species: RAT, Strain/Sex: LONG-EVANS/MALE, Target Tissue: Type of Lesion: HEMATOPOIETIC SYSTEM: LEUKEMIA (UNDIFFERENTIATED CELL), Dose [Carcinogen]: 10 MG IN SESAME OIL 1/2 WK FOR 12 WK (6 TOTAL DOSES)): 10/38 (26%), 8/38 (21%), 19%, not significant
tumour outcome (control, treated, inhibition, significance) (Dose [Inhibitor]: 0.4 MG/D FROM 26 TO 93 D OF AGE BEGINNING 30 D PRIOR TO FIRST CARCINOGEN DOSE (STUDY DURATION: 9 MO AFTER LAST DMBA TREA, Species: RAT, Strain/Sex: LEWIS/FEMALE, Target Tissue: Type of Lesion: MAMMARY GLAND: CARCINOMA, Dose [Carcinogen]: 10 MG TWICE ONCE AT 56 D AND ONCE AT 63 D OF AGE): 70%, 62%, 11%, not significant
tumour outcome (control, treated, inhibition, significance) (Dose [Inhibitor]: 0.4 MG/D FROM 30 TO 90 D OF AGE BEGINNING 30 D PRIOR TO CARCINOGEN DOSE (STUDY DURATION: 6 MO AFTER DMBA TREATMENT), Species: RAT, Strain/Sex: SPRAGUE-DAWLEY/FEMALE, Target Tissue: Type of Lesion: MAMMARY GLAND: CARCINOMA, Dose [Carcinogen]: 20 MG ONCE AT 60 D OF AGE): 96%, 82%, 15%, p<0.05
tumour outcome (control, treated, inhibition, significance) (Dose [Inhibitor]: 0.4 MG/D FROM 30 TO 90 D OF AGE BEGINNING 30 D PRIOR TO CARCINOGEN DOSE (STUDY DURATION: 9 MO AFTER AMBA TREATMENT), Species: RAT, Strain/Sex: SPRAGUE-DAWLEY/FEMALE, Target Tissue: Type of Lesion: MAMMARY GLAND: CARCINOMA, Dose [Carcinogen]: 5 MG ONCE AT 60 D OF AGE): 82%, 60%, 27%, p<0.05
tumour outcome (control, treated, inhibition, significance) (Dose [Inhibitor]: 0.4 MG/D FROM 30 TO 90 D OF AGE BEGINNING 30 D PRIOR TO CARCINOGEN DOSE (STUDY DURATION: 9 MO AFTER DMBA TREATMENT), Species: RAT, Strain/Sex: SPRAGUE-DAWLEY/FEMALE, Target Tissue: Type of Lesion: MAMMARY GLAND: FIBROADENOMA, Dose [Carcinogen]: 5 MG ONCE AT 60 D OF AGE): 25%, 15%, 40%, not significant
tumour outcome (control, treated, inhibition, significance) (Dose [Inhibitor]: 0.4 MG/D FROM 30 TO 90 D OF AGE BEGINNING 30 D PRIOR TO CARCINOGEN DOSE (STUDY DURATION: 9 MO AFTER LAST DMBA TREATMENT), Species: RAT, Strain/Sex: LONG-EVANS/FEMALE, Target Tissue: Type of Lesion: MAMMARY GLAND: CARCINOMA, Dose [Carcinogen]: 20 MG ONCE AT 60 D OF AGE): 25%, 22%, 12%, not significant
tumour outcome (control, treated, inhibition, significance) (Dose [Inhibitor]: 0.4 MG/D FROM 30 TO 90 D OF AGE BEGINNING 30 D PRIOR TO CARCINOGEN DOSE (STUDY DURATION: 9 MO AFTER LAST DMBA TREATMENT), Species: RAT, Strain/Sex: LONG-EVANS/FEMALE, Target Tissue: Type of Lesion: MAMMARY GLAND: FIBROADENOMA, Dose [Carcinogen]: 20 MG ONCE AT 60 D OF AGE): 12%, 3%, 75%, not significant
tumour outcome (control, treated, inhibition, significance) (Dose [Inhibitor]: 0.4 MG/D FROM 30 TO 90 D OF AGE BEGINNING 30 D PRIOR TO CARCINOGEN DOSE (STUDY DURATION: 12 MO AFTER DMBA TREATMENT), Species: RAT, Strain/Sex: SPRAGUE-DAWLEY/FEMALE, Target Tissue: Type of Lesion: MAMMARY GLAND: CARCINOMA, Dose [Carcinogen]: 1.25 MG ONCE AT 60 D OF AGE): 10%, 10%, 0%, not significant
tumour outcome (control, treated, inhibition, significance) (Dose [Inhibitor]: 0.4 MG/D FROM 30 TO 90 D OF AGE BEGINNING 30 D PRIOR TO CARCINOGEN DOSE (STUDY DURATION: 12 MO AFTER DMBA TREATMENT), Species: RAT, Strain/Sex: SPRAGUE-DAWLEY/FEMALE, Target Tissue: Type of Lesion: MAMMARY GLAND: FIBROADENOMA, Dose [Carcinogen]: 1.25 MG ONCE AT 60 D OF AGE): 90%, 80%, 11%, p<0.05
